Results taken from patent US7781641B2, “Absorbent article” (Kao Corporation, priority 2003, dated 2010).

Test: Method of measuring viscosity (tuning fork type vibration mode viscometer)
Format: physicochemical
Experimental: Measurement is conducted using a tuning fork type vibration mode viscometer (VIBRO NISCOMETERCJV5000 (manufactured by A&D Company Limited) is typically used in this embodiment). An oily skin care agent heated previously at about 100° C. is gradually cooled to room temperature, and viscosity at the predetermined temperature is measured.
“Viscosity of a diamide derivative” in the present invention was measured by the same measuring method as used for the viscosity of an oily skin care agent in the above mentioned first embodiment.

With `CCCCCCCCCCCCCCCCOCC(O)CN(CCO)C(=O)CCCCCCCCCCCCCCC` (stereo not shown) [Monoamide of the formula (III)] as the molecule, how does the “viscosity at 36° C.” value read?
The value was 1000 mPa·s.
